Measurements from paper PMC11574108, “4-Furanylvinylquinoline derivative as a new scaffold for the design of oxidative stress initiator and glucose transporter inhibitor drugs” (Scientific Reports, 2024).

Experiments:
[1] = tested on: CDK1; experiment: qRT-PCR, CDK1 mRNA expression; assay type: cell-based, human; conditions: for CDK1 mRNA level vs control: HCT 116 p53-/-, 24 h
Description: The cells were seeded in 35 mm Petri dishes at a density of 500,000 cells and incubated at 37 °C for 24 h. The total RNA was isolated after incubation with solutions of 13 (0.5 µM and 1.0 µM) for 24 h and 48 h, respectively. The isolation from the samples was carried out according to a TRIzol™ Reagent protocol (Thermo Fisher Scientific). Synthesis of cDNA was performed with 2 µg of total RNA using a GoScript™ Reverse Transcriptase kit (Promega) with Oligo(dT)23 Primers. Real-Time PCR was carried out using a CFX96 Touch™ Real-Time PCR Detection System (Bio-Rad) in 10 µL reaction volume. Each sample contained SsoAdvanced™ Universal SYBR Green Supermix (Bio Rad), a specific primer pair mix (0.5 µM each), and 1 µL of cDNA. The reaction was performed under the following conditions: initial denaturation at 95 °C for 30 s; 40 cycles of denaturation at 95 °C for 15 s; annealing (primer-specific temperature) for 30 s, and extension at 72 °C for 60 s. The obtained data were analysed based on a comparison of the expression of the target genes and normalized to a reference gene (GAPDH) using the Livak-Schmittgen (2^−ΔΔCT) method. The experiments were performed at least three times.
In the next step, we decided to investigate the impact of derivative 13 on the mRNA level of CDK1 (the gene encoding one of the cell cycle regulation proteins) at various concentrations and time points (Fig. 4B). In the HCT 116 p53^+/+ cells after the application 0.5 µM of derivative 13, we noticed a slight increase in the expression of CDK1 after both 24 and 48-h. […] However, after a further incubation time, the mRNA level of this gene was similar to that in the untreated cells.

[2] = tested on: HO-1; experiment: Western blot, HO-1 protein level; assay type: cell-based, human; conditions: 24 h
Description: The cells (500,000) were seeded in 35 mm Petri dishes (Nunc) and incubated in a solution of the tested compound (0.5 µM and 1 µM) for 24 h and 48 h. The cells were then dissociated using trypsin, collected in Eppendorf tubes, and centrifuged at 2,000 rpm. Next, cell pellets were resuspended in complete RIPA buffer containing a Halt Protease Inhibitor Cocktail and Halt Phosphatase Inhibitor Cocktail along with 0.5 M EDTA (all reagents from Thermo Fisher Scientific) and lysed on ice for 20 min. Afterward, the lysates were sonicated and centrifuged at 10,000 rpm for 10 min at 4 °C. The obtained supernatants were collected for further analysis. The protein concentration was determined using a Micro BCA™ Protein Assay Kit (Thermo Fisher Scientific) according to the manufacturer’s procedure. Equal amounts of proteins (16 µg) were electrophoresed on SDS-Page gels and transferred onto nitrocellulose membranes. Novex Sharp Pre-Stained Protein Standard (Thermo Fisher Scientific) was used as a colored molecular weight marker. The membranes were blocked in 5% non-fat milk prepared in TPBS (PBS supplemented by 0.1% Tween-20) for 1 h. After blocking, the membranes were cut, and then incubated with specific primary monoclonal antibodies (all purchased from Cell Signaling) overnight at 4 °C. The antibodies for the target proteins (CDK1 Mouse mAb #9116, p53 Mouse mAb #2524, FAS Mouse mAb #8023, GLUT-1 Rabbit mAb #12939, HO-1 Rabbit mAb #5853, p21^Waf1/Cip1 Rabbit mAb #2947, PARP #9542) were diluted 1:1000, while the antibodies for the reference proteins (GAPDH Rabbit mAb #2118, β-actin Mouse mAb #3700, and vinculin Rabbit mAb #13901) were diluted 1:2000. The following day, the membranes were washed in TPBS and incubated with horseradish peroxidase (HRP)-conjugated secondary antibodies (Anti-rabbit IgG, HRP-linked Antibody #7074 or Anti-mouse IgG, HRP-linked Antibody #7076) for 1 h at room temperature. The membranes were then washed in TPBS and incubated with a SuperSignal™ West Pico Chemiluminescent Substrate (Thermo Fisher Scientific). […]

SMILES: O=[N+]([O-])c1ccc(/C=C/c2ccnc3ccccc23)o1 [Compound 13]
- CDK1 mRNA level vs control ([1]; 0.5 µM): two-fold higher
- CDK1 mRNA level vs control ([1]; 1 µM): around one and the half times
- CDK1 mRNA expression vs control ([1]; U-251, 24 h): greater than two-fold upregulation
- HO-1 protein level vs control ([2]; HCT 116 p53+/+, 1 µM): more than twelve-fold
- HO-1 protein level vs control ([2]; HCT 116 p53-/-, 1 µM): six-fold
- HO-1 protein level vs control ([2]; U-251, 1 µM): four-fold
